# Reference: patent US10189840B2, “Substituted tricyclic heterocyclic compounds” (BRISTOL-MYERS SQUIBB COMPANY, priority 2015, dated 2019)
# Molecular target: TNFα (Homo sapiens (Human), UniProt P01375)
# Experiment: TNF induced HEK-Blue assay
# Type: cell-based
# Conditions: TNFα 0.5 ng/ml; HEK-Blue-CD40L cells, NF-κB-driven secreted alkaline phosphatase reporter; 18 h
# How it was run: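 Compounds at 0.004–25 μM final were preincubated 30 min with TNFα (0.5 ng/ml final) in DMEM/10% FBS. HEK-Blue-CD40L cells carrying an NF-κB-driven SEAP reporter (20,000/well) were then added for 18 h at 37 °C, 5% CO2, and SEAP was read by QUANTI-Blue at 620 nm. IC50 came from a 4-parameter logistic fit, normalized to unstimulated and stimulated DMSO controls.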
# Sequence of TNFα (P01375 77-233): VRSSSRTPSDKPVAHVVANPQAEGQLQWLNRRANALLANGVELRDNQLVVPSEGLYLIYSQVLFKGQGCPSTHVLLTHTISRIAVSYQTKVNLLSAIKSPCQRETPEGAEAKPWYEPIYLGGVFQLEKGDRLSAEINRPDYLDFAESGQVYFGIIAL
row,Compound,IC50 [nM]
1,"COc1ccccc1C1CCc2nc3ccc(-c4cnc(N5CCN(CC(=O)O)CC5)nc4)nc3n21 (racemic) [Example 35 (rac), 2-(4-(5-(8-(2-methoxyphenyl)-7,8-dihydro-6H-pyrrolo[2′,1′:2,3]imidazo[4,5-b]pyridin-2-yl)pyrimidin-2-yl)piperazin-1-yl)acetic acid]",1000 to 10000
2,"CC(C)(O)c1ccc(-c2ccc3nc4n(c3n2)C(c2cc(C(F)(F)F)ccc2C(F)(F)F)CC4O)cc1 (stereo not shown) [Example 8 (DM), 8-(2,5-bis(trifluoromethyl)phenyl)-2-(4-(2-hydroxypropan-2-yl)phenyl)-7,8-dihydro-6H-pyrrolo[2′,1′:2,3]imidazo[4,5-b]pyridin-6-ol]",1000 to 10000
3,"Cc1ccc(C(F)(F)F)cc1C1CC(O)c2nc3ccc(-c4ccc(C(C)(C)O)cc4)nc3n21 (stereo not shown) [Example 7 (DM), 2-(4-(2-hydroxypropan-2-yl)phenyl)-8-(2-methyl-5-(trifluoromethyl)phenyl)-7,8-dihydro-6H-pyrrolo[2′,1′:2,3]imidazo[4,5-b]pyridin-6-ol]",1000 to 10000
4,"CC(C)(O)c1ccc(-c2ccc3nc4n(c3n2)C(c2ccccc2C(F)(F)F)CC4F)cc1 (single isomer, unassigned) [Example 14 (e1), 2-(4-(6-Fluoro-8-(2-(trifluoromethyl)phenyl)-7,8-dihydro-6H-pyrrolo[2′,1′:2,3]imidazo[4,5-b]pyridin-2-yl)phenyl)propan-2-ol]",1000 to 10000
5,"CC(C)(O)c1ccc(-c2ccc3nc4n(c3n2)C(c2ccccc2OC(F)(F)F)CC4F)cc1 (single isomer, unassigned) [Example 22 (e2), 2-(4-(6-fluoro-8-(2-(trifluoromethoxy)phenyl)-7,8-dihydro-6H-pyrrolo[2′,1′:2,3]imidazo[4,5-b]pyridin-2-yl)phenyl)propan-2-ol]",1000 to 10000
6,"CC(C)(O)c1ccc(-c2ccc3nc4n(c3n2)C(c2ccccc2C2CC2)CC4F)cc1 (stereo not shown) [Example 21 (e3), 2-(4-(8-(2-cyclopropylphenyl)-6-fluoro-7,8-dihydro-6H-pyrrolo[2′,1′:2,3]imidazo[4,5-b]pyridin-2-yl)phenyl)propan-2-ol]",1000 to 10000
7,"CC(C)(O)c1ccc(-c2ccc3nc4n(c3n2)C(c2cc(F)ccc2C(F)(F)F)CC4)cc1 (single isomer, unassigned) [Example 34 (e2), 2-(4-(8-(5-fluoro-2-(trifluoromethyl)phenyl)-7,8-dihydro-6H-pyrrolo[2′,1′:2,3]imidazo[4,5-b]pyridin-2-yl)phenyl)propan-2-ol]",1000 to 10000

# The next lines start with the values.
row,IC50 [nM],Compound
1,1000 to 10000,"CC(C)(O)c1ccc(-c2ccc3nc4n(c3n2)C(c2ccccc2C(F)(F)F)CC4O)cc1 (single isomer, unassigned) [Example 1 (e4), 2-(4-(2-Hydroxypropan-2-yl)phenyl)-8-(2-(trifluoromethyl)phenyl)-7,8-dihydro-6H-pyrrolo[2′,1′:2,3]imidazo[4,5-b]pyridin-6-ol]"
2,< 1000,"CC(C)(O)c1ccc(-c2ccc3nc4n(c3n2)C(c2ccccc2C2CC2)CC4)cc1 (single isomer, unassigned) [Example 33 (e1), 2-(4-(8-(2-cyclopropylphenyl)-7,8-dihydro-6H-pyrrolo[2′,1′:2,3]imidazo[4,5-b]pyridin-2-yl)phenyl)propan-2-ol]"
3,< 1000,"CC(C)(O)c1ccc(-c2ccc3nc4n(c3n2)C(c2ccccc2C(F)(F)F)CC4)cc1 (single isomer, unassigned) [Example 25 (e1), 2-(4-(8-(2-(Trifluoromethyl)phenyl)-7,8-dihydro-6H-pyrrolo[2′,1′:2,3]imidazo[4,5-b]pyridin-2-yl)phenyl)propan-2-ol]"
4,< 1000,"COc1ccccc1C1CCc2nc3ccc(-c4ccc(C(C)(C)O)cc4)nc3n21 (stereo not shown) [Example 31 (e1), 2-(4-(8-(2-methoxyphenyl)-7,8-dihydro-6H-pyrrolo[2′,1′:2,3]imidazo[4,5-b]pyridin-2-yl)phenyl)propan-2-ol]"
5,< 1000,"CC(C)(O)c1ccc(-c2ccc3nc4n(c3n2)C(c2ccccc2OC(F)F)CC4)cc1 (single isomer, unassigned) [Example 26 (e1), 2-(4-(8-(2-(difluoromethoxy)phenyl)-7,8-dihydro-6H-pyrrolo[2′,1′:2,3]imidazo[4,5-b]pyridin-2-yl)phenyl)propan-2-ol]"
6,< 1000,"CC(C)(O)c1ccc(-c2ccc3nc4n(c3n2)C(c2ccccc2C(F)(F)F)CC4)cc1 (racemic) [Example 25 (rac), 2-(4-(8-(2-(Trifluoromethyl)phenyl)-7,8-dihydro-6H-pyrrolo[2′,1′:2,3]imidazo[4,5-b]pyridin-2-yl)phenyl)propan-2-ol]"
7,< 1000,"CC(C)(O)c1ccc(-c2ccc3nc4n(c3n2)C(c2ccccc2C(F)(F)F)CC4O)cc1 (single isomer, unassigned) [Example 1 (e1), 2-(4-(2-Hydroxypropan-2-yl)phenyl)-8-(2-(trifluoromethyl)phenyl)-7,8-dihydro-6H-pyrrolo[2′,1′:2,3]imidazo[4,5-b]pyridin-6-ol]"
8,< 1000,"OC1CC(c2ccccc2OC(F)F)n2c1nc1ccc(-c3cnc(N4CCOCC4)nc3)nc12 (stereo not shown) [Example 10 (DM), 8-(2-(difluoromethoxy)phenyl)-2-(2-morpholinopyrimidin-5-yl)-7,8-dihydro-6H-pyrrolo[2′,1′:2,3]imidazo[4,5-b]pyridin-6-ol]"
9,< 1000,"CC(C)(O)c1ncc(-c2ccc3nc4n(c3n2)C(c2ccccc2OC(F)F)CC4O)cn1 (stereo not shown) [Example 11 (e1), 8-(2-(difluoromethoxy)phenyl)-2-(2-(2-hydroxypropan-2-yl)pyrimidin-5-yl)-7,8-dihydro-6H-pyrrolo[2′,1′:2,3]imidazo[4,5-b]pyridin-6-ol]"
